Laboratory results published in patent US8927717B1, “Thiochromeno[2,3-c]quinolin-12-one derivatives, preparation method and application thereof” (National Defense Medical Center, priority 2014, dated 2015).

Legend:
IGROV1 = type: cell-based
UACC-257 = type: cell-based
M14 = type: cell-based
SNB-19 = type: cell-based
HT29 = type: cell-based
[1] = molecular target: T1, TOP II (Topoisomerase II) (Homo sapiens, UniProt P11388); test: TOP II-catalyzed relaxation of plasmid DNA assay; type: biochemical
T1 construct: purchased TopoGEN TG-2000H-1
Protocol: We also performed TOP II-catalyzed relaxation of plasmid DNA assays (FIG. 5-7) to evaluate if compounds could inhibit TOP II. […] The IC50 value of compounds 7, N7, N8, N14, N15, N18, and N19 were about 10, 10, 1, 10, 5, 1, and 1 μM, respectively (detect by TopoGEN TG2005H, TG-2000H-1).

HCC-2998 = type: cell-based
COLO 205 = type: cell-based
HOP-92 = type: cell-based; details: HOP-92, five dose
NCI-H460 = type: cell-based
SNB-75 = type: cell-based
CAKI-1 = type: cell-based
HOP-62 = type: cell-based
ACHN = type: cell-based
OVCAR-3 = type: cell-based; details: Ovarian cancer; 10^−5 molar; 48 hours; SRB
TOP I (Topoisomerase I) [2] = molecular target: T2, TOP I (Topoisomerase I) (Homo sapiens, UniProt P11387); test: TOP I mediated supercoiled DNA relaxation assay; type: biochemical; details: primary assay at 25 and/or 50 μM
T2 construct: purchased TopoGEN TG2005H
T2 sequence (P11387 1-765): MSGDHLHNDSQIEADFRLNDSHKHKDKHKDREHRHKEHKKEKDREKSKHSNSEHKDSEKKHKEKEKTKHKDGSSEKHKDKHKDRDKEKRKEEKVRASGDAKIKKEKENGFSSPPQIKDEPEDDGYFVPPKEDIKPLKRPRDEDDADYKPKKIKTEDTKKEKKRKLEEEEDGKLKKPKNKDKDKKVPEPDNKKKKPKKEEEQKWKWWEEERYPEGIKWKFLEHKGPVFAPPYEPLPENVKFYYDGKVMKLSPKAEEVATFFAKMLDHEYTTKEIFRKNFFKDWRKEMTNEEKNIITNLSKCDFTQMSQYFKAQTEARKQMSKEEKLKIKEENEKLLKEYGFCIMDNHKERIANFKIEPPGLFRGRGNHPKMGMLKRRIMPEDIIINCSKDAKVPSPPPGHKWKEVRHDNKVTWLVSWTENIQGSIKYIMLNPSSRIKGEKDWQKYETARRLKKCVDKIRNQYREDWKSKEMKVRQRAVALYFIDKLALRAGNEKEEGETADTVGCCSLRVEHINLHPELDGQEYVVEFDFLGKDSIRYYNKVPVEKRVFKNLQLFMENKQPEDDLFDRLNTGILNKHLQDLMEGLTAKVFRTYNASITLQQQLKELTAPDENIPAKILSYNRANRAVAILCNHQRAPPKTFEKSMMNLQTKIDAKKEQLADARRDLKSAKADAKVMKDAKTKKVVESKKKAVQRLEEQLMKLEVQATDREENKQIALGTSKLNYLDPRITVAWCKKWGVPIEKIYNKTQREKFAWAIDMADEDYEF
Protocol: According to the cell cytotoxicity, compounds 5, 7, 8, 16, 19, N2, N7, N8, N9, N14-N19, and N25 were also selected for primary TOP I and II activities assays at 25 and/or 50 μM (FIG. 2-4).

HS 578T = type: cell-based
OVCAR-4 = type: cell-based
SW-620 = type: cell-based
TOP I (Topoisomerase I) [3] = molecular target: T2, TOP I (Topoisomerase I); test: TOP I mediated supercoiled DNA relaxation assay; type: biochemical; details: five different concentrations; TopoGEN TG2005H, TG-2000H-1
SK-MEL-2 = type: cell-based; details: SK-Mel-2, five dose
SF-539 = type: cell-based
HL-60(TB) = type: cell-based; details: Leukemia; 10^−5 molar; 48 hours; SRB
[4] = Ovarian cancer, 10^−5 molar, 48 hours, SRB
[5] = Melanoma, 10^−5 molar, 48 hours, SRB
[6] = CNS cancer, 10^−5 molar, 48 hours, SRB
[7] = Colon cancer, 10^−5 molar, 48 hours, SRB
[8] = Homo sapiens, HT-29, HT29, five dose
[9] = Homo sapiens, HCC-2998, five dose
[10] = Homo sapiens, NCI-H460, five dose
[11] = Non-small cell lung cancer, 10^−5 molar, 48 hours, SRB
[12] = Homo sapiens, SNB-75, five dose
[13] = Renal cancer, 10^−5 molar, 48 hours, SRB
[14] = Homo sapiens, SW-620, five dose
[15] = Homo sapiens, SF-539, five dose

T1 sequence (P11388 whole entry): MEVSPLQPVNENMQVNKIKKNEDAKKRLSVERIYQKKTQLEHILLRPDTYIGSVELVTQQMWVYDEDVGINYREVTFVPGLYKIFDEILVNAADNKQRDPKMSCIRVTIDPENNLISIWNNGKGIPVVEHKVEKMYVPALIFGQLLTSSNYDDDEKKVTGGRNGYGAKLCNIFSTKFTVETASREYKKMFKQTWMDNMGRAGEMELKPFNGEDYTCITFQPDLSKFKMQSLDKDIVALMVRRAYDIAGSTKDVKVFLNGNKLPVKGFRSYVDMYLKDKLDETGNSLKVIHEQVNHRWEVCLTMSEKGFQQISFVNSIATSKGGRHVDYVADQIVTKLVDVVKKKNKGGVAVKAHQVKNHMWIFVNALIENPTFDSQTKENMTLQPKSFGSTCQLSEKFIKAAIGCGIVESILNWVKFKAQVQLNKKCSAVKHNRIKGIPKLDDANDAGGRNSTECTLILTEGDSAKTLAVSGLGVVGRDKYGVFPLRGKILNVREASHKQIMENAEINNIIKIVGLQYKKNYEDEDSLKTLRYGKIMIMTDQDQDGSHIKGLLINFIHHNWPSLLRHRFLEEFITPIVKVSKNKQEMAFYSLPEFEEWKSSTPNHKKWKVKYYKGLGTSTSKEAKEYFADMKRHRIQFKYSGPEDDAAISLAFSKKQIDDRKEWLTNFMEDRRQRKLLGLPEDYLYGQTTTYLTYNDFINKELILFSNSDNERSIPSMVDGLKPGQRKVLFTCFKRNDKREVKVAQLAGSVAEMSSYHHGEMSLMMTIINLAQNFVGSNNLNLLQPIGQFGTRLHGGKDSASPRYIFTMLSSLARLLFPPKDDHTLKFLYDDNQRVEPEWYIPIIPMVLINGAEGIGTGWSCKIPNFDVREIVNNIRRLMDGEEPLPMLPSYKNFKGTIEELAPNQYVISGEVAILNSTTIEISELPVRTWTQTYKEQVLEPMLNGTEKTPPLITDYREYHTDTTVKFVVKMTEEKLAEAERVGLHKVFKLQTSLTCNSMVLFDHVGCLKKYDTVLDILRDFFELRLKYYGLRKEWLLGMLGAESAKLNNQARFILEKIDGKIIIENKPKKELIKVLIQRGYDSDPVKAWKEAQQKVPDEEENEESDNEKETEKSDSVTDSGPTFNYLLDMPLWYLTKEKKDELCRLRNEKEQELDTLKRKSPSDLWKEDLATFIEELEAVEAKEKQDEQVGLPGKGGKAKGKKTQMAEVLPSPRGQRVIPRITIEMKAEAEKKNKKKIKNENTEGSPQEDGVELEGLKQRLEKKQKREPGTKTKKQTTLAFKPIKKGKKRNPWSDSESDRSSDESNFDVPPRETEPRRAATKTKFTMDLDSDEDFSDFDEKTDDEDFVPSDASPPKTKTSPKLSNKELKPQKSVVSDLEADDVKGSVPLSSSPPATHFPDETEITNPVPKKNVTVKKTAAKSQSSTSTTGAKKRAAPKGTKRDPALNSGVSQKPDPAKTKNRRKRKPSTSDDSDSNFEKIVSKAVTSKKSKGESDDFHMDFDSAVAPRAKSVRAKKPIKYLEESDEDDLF

Structure (SMILES): NCCNc1nc2ccccc2c2c(=O)c3cc(Cl)ccc3sc12 [Compound N14, 6-((2-Aminoethyl)amino)-10-chloro-12H-thiochromeno[2,3-c]quinolin-12-one]
- GI50 (IGROV1; Homo sapiens, IGROV-1, IGROV1, five dose): 1610 nM
- TGI (IGROV1; IGROV1, five dose): 3450 nM
- Growth percent IGROV1 (IGROV1; [4]): −77.31%
- GI50 (UACC-257; Homo sapiens, UACC-257, five dose): 1900 nM
- CC50 (UACC-257; Homo sapiens, UACC-257, five dose, read-out: LC50 (the source's name)): 6700 nM
- Growth percent UACC-257 (UACC-257; [5]): −67.35%
- TGI (UACC-257; UACC-257, five dose): 3560 nM
- GI50 (M14; Homo sapiens, M14, five dose): 1830 nM
- LC50 (M14; Homo sapiens, M14, five dose): 6140 nM
- TGI (M14; M14, five dose): 3350 nM
- Growth percent M14 (M14; [5]): −55.62%
- Growth percent SNB-19 (SNB-19; [6]): 40.06%
- GI50 (SNB-19; Homo sapiens, SNB-19, five dose): 1650 nM
- TGI (SNB-19; SNB-19, five dose): 3180 nM
- Growth percent HT29 (HT29; [7]): −83.30%
- TGI (HT29; HT29, five dose): 3290 nM
- GI50 (HT29; [8]): 1780 nM
- LC50 (concentration killing 50% of cells) (HT29; [8]): 6090 nM
- IC50 ([1]; five different concentrations, TopoGEN TG2005H, TG-2000H-1, read-out: IC50 value, TOP II mediated supercoiled DNA relaxation): ~10000 nM
- inhibitory effect in TOP II relaxation assay compared with VP-16 ([1]; primary assay at 25 and/or 50 μM): more potent inhibitory effects than the positive agent VP-16
- Growth percent HCC-2998 (HCC-2998; [7]): −90.43%
- TGI (HCC-2998; HCC-2998, five dose): 4060 nM
- GI50 (HCC-2998; [9]): 2030 nM
- LC50 (HCC-2998; [9]): 8140 nM
- TGI (COLO 205; COLO 205, five dose): 3570 nM
- Growth percent COLO 205 (COLO 205; [7]): −87.22%
- GI50 (COLO 205; Homo sapiens, COLO 205, five dose): 1730 nM
- TGI (HOP-92): 3050 nM
- GI50 (HOP-92; Homo sapiens): 1030 nM
- LC50 (HOP-92; Homo sapiens): 9040 nM
- GI50 (NCI-H460; [10]): 1690 nM
- LC50 (NCI-H460; [10]): 7050 nM
- TGI (NCI-H460; NCI-H460, five dose): 3450 nM
- Growth percent NCI-H460 (NCI-H460; [11]): −62.39%
- Growth percent SNB-75 (SNB-75; [6]): −43.13%
- GI50 (SNB-75; [12]): 1090 nM
- LC50 (SNB-75; [12]): 4900 nM
- TGI (SNB-75; SNB-75, five dose): 2310 nM
- TGI (CAKI-1; CAKI-1, five dose): 3270 nM
- GI50 (CAKI-1; Homo sapiens, CAKI-1, five dose): 1560 nM
- Growth percent CAKI-1 (CAKI-1; [13]): −75.30%
- TGI (HOP-62; HOP-62, five dose): 2920 nM
- GI50 (HOP-62; Homo sapiens, HOP-62, five dose): 1470 nM
- Growth percent HOP-62 (HOP-62; [11]): −97.40%
- TGI (ACHN; ACHN, five dose): 2760 nM
- GI50 (ACHN; Homo sapiens, ACHN, five dose): 1440 nM
- CC50 (ACHN; Homo sapiens, ACHN, five dose, read-out: LC50 (the source's name)): 5290 nM
- Growth percent ACHN (ACHN; [13]): −92.31%
- Growth percent OVCAR-3 (OVCAR-3): −84.15%
- inhibitory effect in TOP I activity assay compared with CPT (TOP I (Topoisomerase I) [2]): more potent inhibitory effects than CPT
- Growth percent HS 578T (HS 578T; Breast cancer, 10^−5 molar, 48 hours, SRB): 50.82%
- TGI (HS 578T; HS 578T, five dose): 3900 nM
- GI50 (HS 578T; Homo sapiens, HS 578T, five dose): 1690 nM
- GI50 (OVCAR-4; Homo sapiens, OVCAR-4, five dose): 1520 nM
- CC50 (OVCAR-4; Homo sapiens, OVCAR-4, five dose, read-out: LC50 (the source's name)): 6540 nM
- TGI (OVCAR-4; OVCAR-4, five dose): 3150 nM
- Growth percent OVCAR-4 (OVCAR-4; [4]): −20.15%
- Growth percent SW-620 (SW-620; [7]): −66.88%
- GI50 (SW-620; [14]): 1670 nM
- LC50 (SW-620; [14]): 7020 nM
- TGI (SW-620; SW-620, five dose): 3420 nM
- IC50 (TOP I (Topoisomerase I) [3]): ~1000 nM
- GI50 (SK-MEL-2; Homo sapiens): 1980 nM
- LC50 (SK-MEL-2; Homo sapiens): 7870 nM
- TGI (SK-MEL-2): 3950 nM
- Growth percent SF-539 (SF-539; [6]): 2.13%
- GI50 (SF-539; [15]): 1570 nM
- LC50 (SF-539; [15]): 5520 nM
- TGI (SF-539; SF-539, five dose): 2950 nM
- Growth percent HL-60(TB) (HL-60(TB)): −47.50%
